In patent publication US10428030B2, “Heterocycle derivatives and their use for the treatment of CNS disorders” (Trillium Therapeutics Inc., priority 2015, dated 2019):

Tests used:
[1] = tested on: hippocampal kindled rat; experiment: Hippocampal kindled rat model (focal seizures); type: in vivo; details: <300 mg/kg i.p., vs vehicle controls
Description: Hippocampal Kindled Rat Test is designed to quantify the anticonvulsant effects of a test compound in the kindled rat model. Rats treated by i.p. injection.
The Kindled Rat is a model of temporal lobe epilepsy, which is the most common and drug-resistant type of adult focal epilepsy (Morimoto et al., 2004). […] This acquired hyper-responsiveness is called kindling and results not only in increased seizure responses but also in an elongation of the after-discharge duration seen on an EEC recording. Electrodes are implanted into the hippocampus of anesthetized rats, which are then allowed to recover for one week. […] At each time point, the behavioral seizure score (BSS) and after-discharge duration (ADD) is recorded. The BSS's are scored according to the following criteria (Racine, Electroencephalogr Clin Neurophysiol 1972, 32:281-94): Stage 1—mouth and facial clonus; Stage 2—stage 1 plus head nodding; Stage 3—stage 2 plus forelimb clonus; Stage 4—stage 3 plus rearing; and Stage 5—stage 4 plus repeated rearing and falling.
The afterdischarge threshold (ADT) can also be measured in the kindled rat. […] The individual rat ADT is then determined at varying times (i.e., 0.25, 1, 2, and 4 hr) after drug administration.

[2] = tested on: Male Sprague-Dawley rats; experiment: Maximal Electroshock Seizure (MES) rat model; type: in vivo; details: po, 4 hours
Procedure: Male, Sprague-Dawley rats and CD-1 mice were used for all studies. All animals were allowed ad-lib access to food and water except during experiment. Animals were housed within an animal vivarium maintained under a 12 h light:dark cycle (lights on: 07:00 h), and all experiments were conducted in the animals light phase. For all experiments, animals were habituated to the vivarium for a minimum of 72 h before experimentation. The experimental procedures used in the present investigation were conducted under the Association for Assessment and Accreditation of Laboratory Animal Care (AAALAC) and the Canadian Council on Animal Care (CCAC) guidelines.
All compounds were sonicated in 5% Tween 80® in saline or methylcellulose 0.5% (wgt/vol), using MC and sterile water and injected in a dose volume of 5 ml/kg or 10 ml/kg (rat), and 10 ml/kg (mouse). Drugs were administered by either the oral, intraperitoneal or intravenous route.
Male Sprague-Dawley rats of body weight 80-100 g were used for these studies. Each experiment was conducted over 3 consecutive days. On day 1 and 2, each rat received a single electrical stimulus (150 mA, 0.2 s duration, 60 Hz) via corneal electrodes moistened with saline (Shock stimulator type 221: Harvard apparatus). […] Typically this reflected approximately 70-90% of the initial group.
On the test day following a defined drug pretreatment period, rats received a maximal electroshock (150 mA, 0.2 s duration, 60 Hz) via corneal electrodes. Protection was defined as absence of a full tonic seizure within 10 s of stimulus delivery. Twenty minutes before the MES procedure, the animals were tested on a fixed speed rotorod (best score from 3 trials at 8 r.p.m, trial duration=60 s) to give an early assessment of drug effect on gross motor function.

What does the source list for `O=C1COc2cc(OCc3ccc(OC(F)F)cc3)ccc2N1` [Compound I(B)]?
suppression of fully kindled (stage 5) seizures [1]: dose related suppression of fully kindled (stage 5) seizures; ED50 [2]: 20.1 ± 0.7 mg/kg
